Measured values from US8580795B2, “Heterocyclic compounds as phosphodiesterase inhibitors” (Orchid Chemicals & Pharmaceuticals Limited, priority 2009, dated 2013).

These compounds were tested on TNF-α (assay: In vitro measurement of TNF-α production in LPS-stimulated human PBMC (ELISA)). Details: 100 nM compound, LPS 1 μg/mL, 18 h, NA: Not active.
Assay type: cell-based
Protocol: Biological Activity In Vitro Measurement of Tumor Necrosis Factor Alpha (TNF-α):
This assay determines the effect of test compounds on the production of TNF-α in human Peripheral Blood Mononuclear Cells (PBMC). Compounds were tested for their ability to inhibit the activity of TNF α in human PBMC. PBMC were isolated from blood (of healthy volunteers) using BD Vacutainer CPT™ (Cell preparation tube, BD Bio Science) and suspended in RPMI (Rosewell park memorial institute) medium (Physiol. Res. 2003, 52, 593-598). The test compounds were pre-incubated with PBMC (0.5 million/incubation well) for 15 minutes at 37° C. and then stimulated with Lipopolysaccharide (Escherichia coli: B4; 1 μg/mL) for 18 h at 37° C. in 5% CO2. The levels of TNF-α in the cell culture medium were estimated using enzyme-linked immunosorbent assay performed in a 96 well format as per the procedure of the manufacturer (Cayman Chemical, Ann Arbor, USA).
For `CONC(=O)c1nc(-c2ccc(OC(F)F)c3oc4ccc(NS(C)(=O)=O)cc4c23)sc1C` [Example 37, 2-(4-(Difluoromethoxy)-8-(methylsulfonamido)dibenzo[b,d]furan-1-yl)-N-methoxy-5-methyl-1,3-thiazole-4-carboxamide], the inhibition at 0.1 µM was 35.4%.
With `COc1ccc(-c2nc(-c3cccc(C(=O)O)n3)cs2)c2c1oc1ccccc12` [Example 2, 6-(2-(4-Methoxydibenzo[b,d]furan-1-yl)-1,3-thiazol-4-yl)picolinic acid] the inhibition at 0.1 µM was 26.1%.
With `O=C(NC1CCC(O)CC1)c1csc(-c2ccc(OC(F)F)c3oc4ccc(C(F)(F)F)cc4c23)n1` (stereo not shown) [Example 44, 2-(4-(Difluoromethoxy)-8-(trifluoromethyl)dibenzo[b,d]furan-1-yl)-N-(4-hydroxycyclohexyl)-1,3-thiazole-4-carboxamide] the inhibition at 0.1 µM was 17.2%.
For `CS(=O)(=O)Nc1ccc2oc3c(OC(F)F)ccc(-c4nc(C(=O)NC5CCC(O)CC5)cs4)c3c2c1` (stereo not shown) [Example 46, 2-(4-(Difluoromethoxy)-(methylsulfonamido)dibenzo[b,d]furan-1-yl)-N-(4-hydroxycyclohexyl)-1,3-thiazole-4-carboxamide], the inhibition at 0.1 µM was 78.6%.

These compounds were tested against human PDE4B enzyme (PDE4B2) (Homo sapiens, UniProt Q07343) (assay: Phosphodiesterase 4 screening assay (SPA, [3H]-cAMP)). Details: 100 nM compound; 0.5 μM cAMP.
Chain of human PDE4B enzyme (PDE4B2) (Q07343 1-564 isoform Q07343-2): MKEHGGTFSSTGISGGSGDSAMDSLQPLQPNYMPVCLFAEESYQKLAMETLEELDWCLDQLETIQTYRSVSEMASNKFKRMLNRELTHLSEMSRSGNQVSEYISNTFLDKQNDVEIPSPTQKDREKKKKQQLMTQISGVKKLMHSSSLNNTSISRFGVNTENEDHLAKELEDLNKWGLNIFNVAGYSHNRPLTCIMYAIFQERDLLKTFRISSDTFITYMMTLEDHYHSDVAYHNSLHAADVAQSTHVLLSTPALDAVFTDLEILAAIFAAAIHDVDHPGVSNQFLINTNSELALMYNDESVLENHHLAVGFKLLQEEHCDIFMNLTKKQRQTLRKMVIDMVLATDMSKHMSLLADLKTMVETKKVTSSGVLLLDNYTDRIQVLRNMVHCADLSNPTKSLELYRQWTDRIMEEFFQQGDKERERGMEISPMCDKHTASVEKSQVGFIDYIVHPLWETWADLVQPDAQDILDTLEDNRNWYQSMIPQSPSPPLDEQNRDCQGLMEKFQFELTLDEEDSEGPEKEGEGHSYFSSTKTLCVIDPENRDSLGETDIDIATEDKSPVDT
Assay type: biochemical
Protocol: Phosphodiesterase 4 Screening Assay:
PDE4 (Phosphodiesterase type IV) enzymes convert cyclic AMP (cAMP) into AMP. The assay is performed to determine the effect of test compounds on the inhibition of purified human PDE4B enzyme.
The assay involves the detection of the Tritiated AMP (product) using SPA beads known as yittrium silicate. The linear AMP bind preferentially to SPA yittrium silicate beads compared to cyclic nucleotides in the presence of zinc sulphate. The binding of the radiolabelled product to the bead brings the isotope into close proximity to allow radiation from the tritium to excite the scintillant within the bead to emit light. The unbound radiolabel is not close enough to allow this energy transfer and the light emitted due to the binding of tritiated AMP is detected as cpm (counts per minute).
PDE Activity (SPA Based Assay Protocol):
PDE4B activity was inhibited by the compounds according to the invention in a modified SPA (scintillation proximity assay) test, supplied by GE Healthcare Life Sciences (see procedural instructions “Phosphodiesterase [^3H]-cAMP SPA enzyme assay, code TRKQ 7090”), carried out in 96-well microtitre plates. The test volume is 100 μL and contains 50 mM Tris buffer (pH 7.4), 8.3 mM Mg^2+, in the presence of inhibitor or test compound, and containing PDE4B2 enzyme (sufficient to ensure that 10-20% of the cAMP is converted, under the said experimental conditions). […] After a pre-incubation of 5 minutes at 37° C., the reaction is started by adding the substrate (cAMP; 0.5 μM cAMP, including about 50,000 cpm of [^3H]-cAMP) and the assays are incubated for a further 10 minutes; after that, they are stopped by adding SPA beads containing 18 mM ZnSO4 (50 μl). After the beads have been sedimented (>30 minutes), the microtitre plates are analyzed in a Microplate luminescence detection device (TopCount* NXT; PerkinElmer Life Sciences). Where, the signal in the absence of enzyme is defined as the background. 100% activity was defined as the signal detected in the presence of enzyme and DMSO with the background subtracted. The corresponding IC50 values of the compounds for the inhibition of PDE4B2 activity are determined from the concentration-effect curves by means of non-linear regression fit of the standard 4-parameter/multiple binding sites equation from a eight- to ten-point titration. (Catherine B. et al. Anal. Biochem., 1999, 275(2), pp. 148-155, David M. E. Biochem. Pharmacol., 1999, 57, pp. 965-973)
`COc1ccc(-c2nc3ccccc3o2)c2c1oc1ccccc12` [Example 74, 2-(4-Methoxydibenzo[b,d]furan-1-yl)-1,3-benzo[d]oxazole] showed an inhibition at 0.1 µM of 54.9%.
`CNC(=O)c1coc(-c2ccc(OC)c3oc4ccccc4c23)n1` [Example 69, 2-(4-Methoxydibenzo[b,d]furan-1-yl)-N-methyl-1,3-oxazole-4-carboxamide] showed an inhibition at 0.1 µM of 33.3%.
With `CCOC(=O)c1csc(-c2ccc(OC)c3oc4ccccc4c23)n1` [Example 15, Ethyl 2-(4-methoxydibenzo[b,d]furan-1-yl)-1,3-thiazole-4-carboxylate] the inhibition at 0.1 µM was 17.6%.
`COc1ccc(-c2nc3cc(C(N)=O)ccc3o2)c2c1oc1ccccc12` [Example 73, 2-(4-Methoxydibenzo[b,d]furan-1-yl)-1,3-benzo[d]oxazole-5-carboxamide] was tested, and the inhibition at 0.1 µM was 18.1%.
With `COc1ccc(-c2nc(C(=O)Nc3ccc(Cl)cc3)cs2)c2c1oc1ccccc12` [Example 20, N-(4-Chlorophenyl)-2-(4-methoxydibenzo[b,d]furan-1-yl)-1,3-thiazole-4-carboxamide] the inhibition at 0.1 µM was 2.98%.
Work on `COc1ccc(-c2nc(C(=O)N3CCN(c4ncc(C(=O)O)cn4)CC3)co2)c2c1oc1ccccc12` [Example 66, 2-(4-(2-(4-Methoxydibenzo[b,d]furan-1-yl)oxazole-4-carbonyl)piperazin-1-yl)pyrimidine-5-carboxylic acid] yielded an inhibition at 0.1 µM of 18.9%.
`CCNC(=O)c1nc(-c2ccc(OC)c3oc4ccccc4c23)oc1C` [Example 57, N-Ethyl 2-(4-methoxydibenzo[b,d]furan-1-yl)-5-methyl-1,3-oxazole-4-carboxamide] gave an inhibition at 0.1 µM of 32.5%.
For `COc1ccc(-c2nc(-c3ccc(C#N)cc3)cs2)c2c1oc1ccccc12` [Example 8, 4-(2-(4-Methoxydibenzo[b,d]furan-1-yl)-1,3-thiazol-4-yl)benzonitrile], the inhibition at 0.1 µM was 5.16%.
With `COc1ccc(-c2nc(C(=O)NC3CCC(O)CC3)c(C)o2)c2c1oc1ccccc12` (stereo not shown) [Example 60, N-(4-Hydroxycyclohexyl)-2-(4-methoxydibenzo[b,d]furan-1-yl)-5-methyl-1,3-oxazole-4-Carboxamide] the inhibition at 0.1 µM was 47.3%.
Work on `COc1ccc(-c2nc(C(=O)N3CCN(c4ccccn4)CC3)cs2)c2c1oc1ccccc12` [Example 19, (2-(4-Methoxydibenzo[b,d]furan-1-yl)-1,3-thiazol-4-yl)(4-(pyridin-2-yl)piperazin-1-yl)methanone] yielded an inhibition at 0.1 µM of 21.9%.
`CS(=O)(=O)Nc1ccc2oc3c(OC(F)F)ccc(-c4nc(C(=O)O)co4)c3c2c1` [Example 49, 2-(4-(Difluoromethoxy)-8-(methylsulfonamido)dibenzo[b,d]furan-1-yl)-1,3-oxazole-4-carboxylic acid] was tested, and the inhibition at 0.1 µM was 59.5%.
With `COc1ccc(-c2nc(C(=O)N3CCCC3)co2)c2c1oc1ccccc12` [Example 71, [2-(4-Methoxydibenzo[b,d]furan-1-yl)-1,3-oxazol-4-yl](pyrrolidin-1-yl)methanone] the inhibition at 0.1 µM was 20.3%.
`CCOC(=O)c1sc(-c2ccc(OC)c3oc4ccccc4c23)nc1C` [Example 21, Ethyl 2-(4-methoxydibenzo[b,d]furan-1-yl)-4-methyl-1,3-thiazole-5-carboxylate] was tested, and the inhibition at 0.1 µM was 9.1%.
For `COc1ccc(-c2nc3cc(C(=O)O)ccc3o2)c2c1oc1ccccc12` [Example 72, 2-(4-Methoxydibenzo[b,d]furan-1-yl)-1,3-benzo[d]oxazole-5-carboxylic acid], the inhibition at 0.1 µM was 22.2%.
For `COc1ccc(-c2nc(C(=O)Nc3ccccc3)cs2)c2c1oc1ccccc12` [Example 17, 2-(4-Methoxydibenzo[b,d]furan-1-yl)-N-phenyl-1,3-thiazole-4-carboxamide], the inhibition at 0.1 µM was 2.42%.
For `COc1ccc(-c2nc(C(=O)O)cs2)c2c1oc1ccccc12` [Example 16, 2-(4-Methoxydibenzo[b,d]furan-1-yl)-1,3-thiazole-4-carboxylic acid], the inhibition at 0.1 µM was 36%.
In the case of `COc1ccc(-c2nc3cc(C(=O)NC4CCCC4)ccc3o2)c2c1oc1ccccc12` [Example 76, N-Cyclopentyl-2-(4-methoxydibenzo[b,d]furan-1-yl)-1,3-benzo[d]oxazole-5-carboxamide], the inhibition at 0.1 µM was 48.3%.
With `COc1ccc(-c2nc(C(=O)N3CCN(c4ncccn4)CC3)cs2)c2c1oc1ccccc12` [Example 18, (2-(4-Methoxydibenzo[b,d]furan-1-yl)-1,3-thiazol-4-yl)(4-(pyrimidin-2-yl)piperazin-1-yl)methanone] the inhibition at 0.1 µM was 25.8%.
`COc1ccc(-c2nc(C(N)=O)c(C)o2)c2c1oc1ccccc12` [Example 58, 2-(4-Methoxydibenzo[b,d]furan-1-yl)-5-methyl-1,3-oxazole-4-carboxamide] gave an inhibition at 0.1 µM of 64.1%.
`COc1ccc(-c2nc3ncccc3o2)c2c1oc1ccccc12` [Example 75, 2-(4-Methoxydibenzo[b,d]furan-1-yl)[1,3]oxazolo[4,5-b]pyridine] was tested, and the inhibition at 0.1 µM was 37.2%.
`COc1ccc(-c2csc(-c3ccc(OC)c4oc5ccccc5c34)n2)cc1` [Example 22, 2-(4-Methoxydibenzo[b,d]furan-1-yl)-4-(4-methoxyphenyl)-1,3-thiazole] showed an inhibition at 0.1 µM of 19.4%.
`COc1ccc(-c2nc(C(=O)NC3CC3)co2)c2c1oc1ccccc12` [Example 70, N-Cyclopropyl-2-(4-methoxydibenzo[b,d]furan-1-yl)-1,3-oxazole-4-carboxamide] was tested, and the inhibition at 0.1 µM was 2.34%.
Work on `COc1ccc(-c2nc(CC(=O)Nc3c(Cl)cncc3Cl)cs2)c2c1oc1ccccc12` [Example 12, N-(3,5-Dichloropyridin-4-yl)-2-(2-(4-methoxydibenzo[b,d]furan-1-yl)-1,3-thiazol-4-yl)acetamide] yielded an inhibition at 0.1 µM of 8.92%.
For `COc1ccc(-c2nc3cc(C(=O)NC4CCC(O)CC4)ccc3o2)c2c1oc1ccccc12` (stereo not shown) [Example 77, N-(4-Hydroxycyclohexyl)-2-(4-methoxydibenzo[b,d]furan-1-yl)-1,3-benzo[d]oxazole-5-carboxamide], the inhibition at 0.1 µM was 55.3%.
`COc1ccc(-c2nc(C(=O)NC(C)C)c(C)o2)c2c1oc1ccccc12` [Example 61, 2-(4-Methoxydibenzo[b,d]furan-1-yl)-5-methyl-N-(propan-2-yl)-1,3-oxazole-4-carboxamide] was tested, and the inhibition at 0.1 µM was 44.3%.
Compound `COc1ccc(-c2nc(C)c(C(=O)O)s2)c2c1oc1ccccc12` [Example 23, 2-(4-Methoxydibenzo[b,d]furan-1-yl)-4-methyl-1,3-thiazole-5-carboxylic acid] has an inhibition at 0.1 µM of 16.8%.
For `COc1ccc(-c2nc(C(N)=O)co2)c2c1oc1ccccc12` [Example 67, 2-(4-Methoxydibenzo[b,d]furan-1-yl)-1,3-oxazole-4-carboxamide], the inhibition at 0.1 µM was 22.8%.
